Reference: patent US20240279220A1, “INDOLE COMPOUNDS AND METHODS OF USE” (Genzyme Corporation, priority 2021, published 2024)

Assays:
[1] = tested on: NBD1/3D; test: Aggregation analysis using differential static light scattering (DSLS), NBD1 thermal stability; format: binding, Human; settings: ΔTagg versus DMSO control; compound at 100 μM
Procedure, shortened: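 Thermal stabilisation reported as ΔTagg, i.e. aggregation temperature relative to averaged DMSO wells. Tagg came from the inflection of differential static light scattering imaged 25–70 °C while NBD1 (0.2 mg/ml, Tris pH 7.6 buffer containing ATP, MgCl2, DTT, glycerol) was ramped 1 °C/min.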

[2] = biological target: T1, CFTR (Homo sapiens, UniProt P13569, DEL508-508); test: TECC24 recording of CFTR-mediated transepithelial chloride transport in ΔF508 homozygous CF-HBE cells; format: cell-based; settings: 10 μM test agent, 48 hours incubation, AUC of forskolin-stimulated IEQ divided by vehicle AUC, primary CF-HBE cells
T1 construct: Primary human bronchial epithelial cells from a ΔF508 homozygous CF donor; host or cells: primary human bronchial epithelial cells (CF-HBE), ΔF508 homozygous donor
Procedure, shortened: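 ΔF508 homozygous primary bronchial epithelia exposed to compound 48 h at 36.5 °C, then transepithelial voltage and resistance recorded in pH 7.4 buffer with benzamil (10 μM), forskolin (10 μM) stimulation and CFTRinh-172 (20 μM) stop. Equivalent Cl⁻ current AUC vs vehicle gives efficacy; EC50 fitted with Hill slope fixed at 1.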

T1 sequence (P13569 with tags, fused parts or gaps DEL508-508): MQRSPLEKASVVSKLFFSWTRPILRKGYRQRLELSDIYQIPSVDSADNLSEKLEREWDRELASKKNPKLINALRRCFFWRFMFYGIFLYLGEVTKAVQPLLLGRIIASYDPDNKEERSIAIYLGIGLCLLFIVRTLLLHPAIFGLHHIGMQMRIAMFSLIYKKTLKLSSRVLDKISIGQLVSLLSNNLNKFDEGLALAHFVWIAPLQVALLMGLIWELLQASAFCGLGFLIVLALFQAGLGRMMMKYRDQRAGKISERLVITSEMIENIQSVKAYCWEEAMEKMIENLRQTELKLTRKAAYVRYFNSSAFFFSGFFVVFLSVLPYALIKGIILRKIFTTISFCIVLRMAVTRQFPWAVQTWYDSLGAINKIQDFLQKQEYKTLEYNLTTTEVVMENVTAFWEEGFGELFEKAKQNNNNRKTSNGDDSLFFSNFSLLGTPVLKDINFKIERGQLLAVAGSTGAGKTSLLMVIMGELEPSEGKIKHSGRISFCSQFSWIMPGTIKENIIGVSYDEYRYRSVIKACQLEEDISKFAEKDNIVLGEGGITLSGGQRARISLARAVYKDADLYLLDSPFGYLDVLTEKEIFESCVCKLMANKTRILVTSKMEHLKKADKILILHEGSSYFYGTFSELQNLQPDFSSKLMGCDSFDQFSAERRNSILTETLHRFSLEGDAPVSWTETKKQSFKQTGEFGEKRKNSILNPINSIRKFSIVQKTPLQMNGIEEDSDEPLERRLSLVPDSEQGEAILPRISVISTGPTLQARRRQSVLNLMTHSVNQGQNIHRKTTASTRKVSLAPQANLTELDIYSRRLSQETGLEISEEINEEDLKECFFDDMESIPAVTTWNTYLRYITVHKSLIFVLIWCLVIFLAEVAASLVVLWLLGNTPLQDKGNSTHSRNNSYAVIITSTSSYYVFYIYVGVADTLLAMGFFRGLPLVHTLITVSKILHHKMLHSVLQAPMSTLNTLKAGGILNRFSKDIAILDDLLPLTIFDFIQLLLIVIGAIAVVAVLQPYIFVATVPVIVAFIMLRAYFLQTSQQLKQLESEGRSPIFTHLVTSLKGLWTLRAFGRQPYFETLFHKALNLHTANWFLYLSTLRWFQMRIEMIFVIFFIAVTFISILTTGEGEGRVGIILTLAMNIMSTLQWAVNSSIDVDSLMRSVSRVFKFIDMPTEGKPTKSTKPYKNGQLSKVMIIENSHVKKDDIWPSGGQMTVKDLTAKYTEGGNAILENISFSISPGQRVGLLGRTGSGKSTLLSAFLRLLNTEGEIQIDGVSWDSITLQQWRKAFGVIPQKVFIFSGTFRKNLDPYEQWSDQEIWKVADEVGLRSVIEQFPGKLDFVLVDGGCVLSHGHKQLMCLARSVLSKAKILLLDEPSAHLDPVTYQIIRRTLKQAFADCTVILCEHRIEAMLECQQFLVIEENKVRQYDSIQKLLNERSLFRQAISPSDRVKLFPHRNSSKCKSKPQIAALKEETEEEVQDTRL

Compound	DSLS NBD1/3D Human Stability delta-T (° C.) @ 100 (μM) [1]	TECC24 @ 10 μM over DMSO (AUC fold over DMSO) [2]
CC(c1c[nH]c(-c2cc(Oc3c(F)cc4[nH]ccc4c3S(C)(=O)=O)ccc2F)n1)c1cccc(CC(=O)O)c1F (single isomer, unassigned) [Example 84, 2-(2-fluoro-3-(1-(2-(2-fluoro-5-((6-fluoro-4-(methylsulfonyl)-1H-indol-5-yl)oxy)phenyl)-1H-imidazol-4-yl)ethyl)phenyl)acetic acid]	A (A: T ≥ 10° C.)	B (“B” refers to AUC @10 uM between 4-12)
CC(c1ccn(-c2cccc(Oc3c(F)cc4[nH]ccc4c3S(C)(=O)=O)c2)n1)c1cccc(CCC(=O)O)c1F (single isomer, unassigned) [Example 23B, 3-(2-fluoro-3-(1-(1-(3-((6-fluoro-4-(methylsulfonyl)-1H-indol-5-yl)oxy)phenyl)-1H-pyrazol-3-yl)ethyl)phenyl)propanoic acid]	A (A: T ≥ 10° C.)	A (“A” refers to AUC @10 uM >= 12)
COCC(COC)(c1cccc(CCC(=O)O)c1)c1cnc(-c2cc(Oc3c(F)cc4[nH]ccc4c3F)ccc2F)[nH]1 [Example 171, 3-(3-(2-(2-(5-((4,6-Difluoro-1H-indol-5-yl)oxy)-2-fluorophenyl)-1H-imidazol-5-yl)-1,3-dimethoxypropan-2-yl)phenyl)propanoic acid]	A (A: T ≥ 10° C.)	C (“C” refers to AUC @ 10 uM <= 4)
CNC(=O)c1c(Oc2ccc(F)c(-c3ncc(Cc4cccc(CCC(=O)O)c4)[nH]3)c2)c(F)cc2[nH]ccc12 [Example 140, 3-(3-((2-(2-Fluoro-5-((6-fluoro-4-(methylcarbamoyl)-1H-indol-5-yl)oxy)phenyl)-1H-imidazol-5-yl)methyl)phenyl)propanoic acid]	B (B: 5-10° C.)	C (“C” refers to AUC @ 10 uM <= 4)
CC(c1cnc(-c2cc(Oc3c(F)cc4[nH]ccc4c3CCP(C)(C)=O)ccc2F)[nH]1)c1cccc(CCC(=O)O)c1F (single isomer, unassigned) [Example 135A, 3-(3-(1-(2-(5-((4-(2-(dimethylphosphoryl)ethyl)-6-fluoro-1H-indol-5-yl)oxy)-2-fluorophenyl)-1H-imidazol-5-yl)ethyl)-2-fluorophenyl)propanoic acid]	A (A: T ≥ 10° C.)	C (“C” refers to AUC @ 10 uM <= 4)
Cc1c(Oc2ccc(F)c(-c3ncc([C@H](C)c4cccc([C@@H]5C[C@H]5C(=O)O)c4F)[nH]3)c2)c(F)cc2[nH]ccc12 (single isomer, unassigned) [Example 139F, trans-2-(2-fluoro-3-(1-(2-(2-fluoro-5-((6-fluoro-4-methyl-1H-indol-5-yl)oxy)phenyl)-1H-imidazol-5-yl)ethyl)phenyl)cyclopropane-1-carboxylic acid]	A (A: T ≥ 10° C.)	B (“B” refers to AUC @10 uM between 4-12)
O=C(O)CCc1cc(F)cc(Cc2cnc(-c3cc(Oc4c(F)cc5[nH]ccc5c4F)ccc3F)[nH]2)c1F [Example 124, 3-(3-((2-(5-((4,6-difluoro-1H-indol-5-yl)oxy)-2-fluorophenyl)-1H-imidazol-5-yl)methyl)-2,5-difluorophenyl)propanoic acid]	B (B: 5-10° C.)	B (“B” refers to AUC @10 uM between 4-12)
Cc1nc(-c2cc(Oc3c(F)cc4[nH]ccc4c3F)ccc2F)[nH]c1C(O)c1cccc(CCC(=O)O)c1F (single isomer, unassigned) [Example 180, 3-(3-((2-(5-((4,6-difluoro-1H-indol-5-yl)oxy)-2-fluorophenyl)-4-methyl-1H-imidazol-5-yl)(hydroxy)methyl)-2-fluorophenyl)propanoic acid]	A (A: T ≥ 10° C.)	A (“A” refers to AUC @10 uM >= 12)
CC(c1c[nH]c(-c2cc(Oc3c(F)cc4[nH]ccc4c3S(C)(=N)=O)ccc2F)n1)c1cccc(CCC(=O)O)c1F (single isomer, unassigned) [Example 136C, 3-(2-fluoro-3-(1-(2-(2-fluoro-5-((6-fluoro-4-(S-methylsulfonimidoyl)-1H-indol-5-yl)oxy)phenyl)-1H-imidazol-4-yl)ethyl)phenyl)propanoic acid]	A (A: T ≥ 10° C.)	A (“A” refers to AUC @10 uM >= 12)
O=C(O)CCc1cccc(Cc2c[nH]c(-c3cc(Oc4c(F)cc5[nH]ccc5c4F)ccc3F)n2)c1 [Example 118, 3-(3-((2-(5-((4,6-difluoro-1H-indol-5-yl)oxy)-2-fluorophenyl)-1H-imidazol-4-yl)methyl)phenyl)propanoic acid]	B (B: 5-10° C.)	B (“B” refers to AUC @10 uM between 4-12)
CP(C)(=O)c1c(Oc2cccc(-c3nc(C(O)c4cccc(CCC(=O)O)c4)cs3)c2)c(F)cc2[nH]ccc12 (stereo not shown) [Example 97, 3-(3-((2-(3-((4-(Dimethylphosphoryl)-6-fluoro-1H-indol-5-yl)oxy)phenyl)thiazol-4-yl)(hydroxy)methyl)phenyl)propanoic acid]	B (B: 5-10° C.)	C (“C” refers to AUC @ 10 uM <= 4)
CS(=O)(=O)c1c(Oc2cccc(-c3ccn(Cc4cccc(CCC(=O)O)c4)n3)c2)ccc2[nH]ccc12 [Example 40]	A (A: T ≥ 10° C.)	A (“A” refers to AUC @10 uM >= 12)
O=C(O)CCc1cccc(C2(c3cnc(-c4cc(Oc5c(F)c(F)c6[nH]ccc6c5F)ccc4F)[nH]3)CCOCC2)c1 [Example 167, 3-(3-(4-(2-(2-fluoro-5-((4,6,7-trifluoro-1H-indol-5-yl)oxy)phenyl)-1H-imidazol-4-yl)tetrahydro-2H-pyran-4-yl)phenyl)propanoic acid]	A (A: T ≥ 10° C.)	C (“C” refers to AUC @ 10 uM <= 4)
O=C(O)CCc1cccc(C(O)(c2cnc(-c3cc(Oc4c(F)cc5[nH]ccc5c4F)ccc3F)[nH]2)C(F)(F)F)c1 (stereo not shown) [Example 273, 3-(3-(1-(2-(5-((4,6-difluoro-1H-indol-5-yl)oxy)-2-fluorophenyl)-1H-imidazol-5-yl)-2,2,2-trifluoro-1-hydroxyethyl)phenyl)propanoic acid]	B (B: 5-10° C.)	C (“C” refers to AUC @ 10 uM <= 4)
